Test results: patent US8273770B2, “5-pyridinone substituted indazoles” (Albany Molecular Research, Inc., priority 2007, dated 2012)
Counter-ions that a name gives are not always drawn.

Tests used:
human MCH1 receptor = molecular target: T1, human MCH1 receptor (Homo sapiens, UniProt Q99705); test: MCH1 binding assay I or II (radioligand binding, membranes of CHO cells expressing the receptor); conditions: estimated based on the measured percent inhibition
T1 construct: host or cells: CHO cells (assay I)
T1 sequence (Q99705 whole entry): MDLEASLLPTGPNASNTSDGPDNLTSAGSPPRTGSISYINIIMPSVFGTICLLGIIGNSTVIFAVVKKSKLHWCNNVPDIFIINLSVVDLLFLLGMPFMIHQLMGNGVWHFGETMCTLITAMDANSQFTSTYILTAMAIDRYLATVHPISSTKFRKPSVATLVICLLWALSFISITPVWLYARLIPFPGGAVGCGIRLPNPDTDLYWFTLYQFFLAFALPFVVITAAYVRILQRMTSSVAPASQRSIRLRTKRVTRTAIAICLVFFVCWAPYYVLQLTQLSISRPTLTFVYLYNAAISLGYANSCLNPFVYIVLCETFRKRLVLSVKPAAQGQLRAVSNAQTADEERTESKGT
Excerpt: Binding Assay I for Human Melanin-Concentrating Hormone (MCH1) Receptor
Evaluation of the affinity of compounds for the human MCH1 receptor was accomplished in transfected Chinese Hamster Ovary (CHO) cells determined in a radioligand binding assay, as described in MacDonald et al., “Molecular characterization of the melanin-concentrating hormone/receptor complex: identification of critical residues involved in binding and activation”, Mol Pharmacol., 58:217 (2000). […] Nonspecific binding was determined in the presence of 0.1 μM MCH. […] The filters were dried, then counted for radioactivity in a scintillation counter (Topcount, Packard) using a scintillation cocktail (Microscint 0, Packard).
The results are expressed as a percent inhibition of the control radioligand specific binding. The IC50 value (concentration causing a half-maximal inhibition of control specific binding) and Hill coefficient (nH) were determined by non-linear regression analysis of the competition curve using Hill equation curve fitting. The inhibition constant (Ki) was calculated from the Cheng Prusoff equation: (Ki=IC50/(1+(L/KD)), where L=concentration of radioligand in the assay, and KD=affinity of the radioligand for the receptor). […]
The results are expressed as a percent inhibition of the control radioligand specific binding. […]

Row | Compound | melting point | Ki (human MCH1 receptor) [µM]
1 | Cl.O=c1cc(-c2ccc(OC(F)(F)F)cc2)ccn1-c1ccc2c(cnn2CCN2CCCC2)c1 | 202 to 209 °C | –
2 | Cl.O=c1cc(-c2ccc(C(F)(F)F)cc2C(F)(F)F)ccn1-c1ccc2c(cnn2CCN2CCCC2)c1 | 235 to 245 °C | –
3 | Cc1cc(OCc2ccccc2)ccc1-c1ccn(-c2ccc3c(cnn3CCN3CCCC3)c2)c(=O)c1.Cl | 75 to 85 °C | –
4 | Cl.O=c1cc(-c2ccc(C(F)(F)F)cc2)ccn1-c1ccc2c(cnn2CCN2CCOCC2)c1 | 248 to 250 °C (dec.) | –
5 | CN(C)CCn1ncc2cc(-n3ccc(-c4ccc(C(F)(F)F)cc4)cc3=O)ccc21.Cl | 222 to 224 °C | –
6 | Cl.O=c1cc(-c2ccc(C(F)(F)F)cc2)ccn1-c1ccc2c(cnn2CCN2CCNCC2)c1 | 222 to 224 °C (dec.) | –
7 | CN(C)CCCn1ncc2cc(-n3ccc(-c4ccc(C(F)(F)F)cc4)cc3=O)ccc21.Cl | 209 to 211 °C | –
8 | Cl.NCCCn1ncc2cc(-n3ccc(-c4ccc(C(F)(F)F)cc4)cc3=O)ccc21 | 222 to 224 °C (dec.) | –
9 | Cl.O=c1cc(-c2ccc(C(F)(F)F)cc2)ccn1-c1ccc2c(cnn2C[C@@H]2CCCN2)c1 | 241 to 245 °C | –
10 | CN(C)C[C@@H](O)Cn1ncc2cc(-n3ccc(-c4ccc(C(F)(F)F)cc4)cc3=O)ccc21.Cl | 210 to 213 °C | –
11 | Cl.O=c1cc(-c2ccc(C(F)(F)F)cc2)ccn1-c1ccc2c(cnn2C[C@H](O)CN2CCCC2)c1 | 116 to 119 °C | –
12 | Cl.O=c1cc(-c2ccc(C(F)(F)F)cc2)ccn1-c1ccc2c(cnn2CCN2CC3CC2CO3)c1 (stereo not shown) | 148 to 150 °C | –
13 | Cl.O=c1cc(-c2ccc(OC(F)(F)F)cc2F)ccn1-c1ccc2c(cnn2CCN2CCCC2)c1 | 215 to 225 °C | –
14 | Cl.O=c1cc(-c2ccc3ccccc3c2)ccn1-c1ccc2c(cnn2CCN2CCCC2)c1 | 128 to 134 °C | –
15 | Cl.O=c1cc(-c2ccc(N3CCCCC3)cc2)ccn1-c1ccc2c(cnn2CCN2CCCC2)c1 | 80 to 90 °C | –
16 | Cl.O=c1cc(-c2ccc(-n3cccn3)cc2)ccn1-c1ccc2c(cnn2CCN2CCCC2)c1 | 271 to 275 °C | –
17 | CC1CC=C(c2ccn(-c3ccc4c(cnn4CCN4CCCC4)c3)c(=O)c2)CC1.Cl (stereo not shown) | 256 to 260 °C | –
18 | CC1CCC(c2ccn(-c3ccc4c(cnn4CCN4CCCC4)c3)c(=O)c2)CC1.Cl (stereo not shown) | 80 to 85 °C | –
19 | O=c1cc(-c2cccc3ccccc23)ccn1-c1ccc2c(cnn2CCN2CCCC2)c1 (as salt: hydrochloride) | 128 to 133 °C | –
20 | COc1ccc2c(c1)cc(-c1ccn(-c3ccc4c(cnn4CCN4CCCC4)c3)c(=O)c1)n2C [Example 65, 4-(5-Methoxy-1-methyl-1H-indol-2-yl)-1-(1-(2-(pyrrolidin-1-yl)ethyl)-1H-indazol-5-yl)pyridin-2(1H)-one dihydrochloride] | – | ~3

The next lines start with the values.

Row | melting point | Ki (human MCH1 receptor) [µM] | Compound
21 | 240 to 246 °C | – | Cc1ccc(-c2ccn(-c3ccc4c(cnn4CCN4CCCC4)c3)c(=O)c2)cc1.Cl
22 | 92 to 96 °C | – | Cl.N#Cc1ccc(-c2ccn(-c3ccc4c(cnn4CCN4CCCC4)c3)c(=O)c2)cc1
23 | 105 to 110 °C | – | COc1ccc(-c2ccn(-c3ccc4c(cnn4CCN4CCCC4)c3)c(=O)c2)cc1.Cl
24 | 81 to 86 °C | – | Cl.N#Cc1cc(F)ccc1-c1ccn(-c2ccc3c(cnn3CCN3CCCC3)c2)c(=O)c1
25 | 255 to 260 °C (dec.) | – | Cl.O=c1cc(-c2ccc(Cl)cc2)ccn1-c1ccc2c(cnn2CCN2CCCC2)c1
26 | 95 to 115 °C | – | COc1ccc(-c2ccn(-c3ccc4c(cnn4CCN4CCCC4)c3)c(=O)c2)c(OC)c1.Cl
27 | 235 to 255 °C | – | Cl.O=c1cc(-c2ccc(F)cc2F)ccn1-c1ccc2c(cnn2CCN2CCCC2)c1
28 | 235 to 250 °C | – | CC(C)Oc1ccc(-c2ccn(-c3ccc4c(cnn4CCN4CCCC4)c3)c(=O)c2)cc1.Cl
29 | 80 to 95 °C | – | CCCCOc1ccc(-c2ccn(-c3ccc4c(cnn4CCN4CCCC4)c3)c(=O)c2)c(C)c1.Cl
30 | 80 to 95 °C | – | Cc1ccccc1-c1ccn(-c2ccc3c(cnn3CCN3CCCC3)c2)c(=O)c1.Cl
31 | 248 to 256 °C | – | COc1cc(Cl)ccc1-c1ccn(-c2ccc3c(cnn3CCN3CCCC3)c2)c(=O)c1.Cl
32 | 75 to 85 °C | – | Cl.O=c1cc(-c2ccc3c(c2)OCO3)ccn1-c1ccc2c(cnn2CCN2CCCC2)c1
33 | 205 to 215 °C | – | COc1ccc(-c2ccn(-c3ccc4c(cnn4CCN4CCCC4)c3)c(=O)c2)c(C)c1.Cl
34 | 260 to 264 °C | – | Cl.O=c1cc(-c2cc3ccccc3s2)ccn1-c1ccc2c(cnn2CCN2CCCC2)c1
35 | 230 to 234 °C | – | Cc1ccc(-c2ccn(-c3ccc4c(cnn4CCN4CCCC4)c3)c(=O)c2)nc1.Cl
36 | 256 to 260 °C | – | Cl.O=c1cc(-c2cc3ccccc3o2)ccn1-c1ccc2c(cnn2CCN2CCCC2)c1
37 | 115 to 120 °C | – | Cl.O=c1cc(-c2ccc(F)cc2)ccn1-c1ccc2c(cnn2CCN2CCCC2)c1
38 | 215 to 230 °C | – | Cl.O=c1cc(-c2ccc(Cl)cc2F)ccn1-c1ccc2c(cnn2CCN2CCCC2)c1
39 | 80 to 95 °C | – | Cl.O=c1cc(-c2ccc(C(F)(F)F)cc2F)ccn1-c1ccc2c(cnn2CCN2CCCC2)c1
40 | 230 to 240 °C | – | COc1ccc(-c2ccn(-c3ccc4c(cnn4CCN4CCCC4)c3)c(=O)c2)c(F)c1.Cl
41 | 225 to 235 °C | – | COc1ccc(-c2ccn(-c3ccc4c(cnn4CCN4CCCC4)c3)c(=O)c2)c(Cl)c1.Cl
42 | 255 to 265 °C | – | CCOc1ccc(-c2ccn(-c3ccc4c(cnn4CCN4CCCC4)c3)c(=O)c2)cc1.Cl
43 | 185 to 195 °C | – | Cc1cc(OC(F)(F)F)ccc1-c1ccn(-c2ccc3c(cnn3CCN3CCCC3)c2)c(=O)c1.Cl
44 | 55 to 65 °C | – | Cl.Cn1ncc2cc(-c3ccn(-c4ccc5c(cnn5CCN5CCCC5)c4)c(=O)c3)ccc21
45 | 110 to 120 °C | – | Cl.O=c1cc(-c2ccc(C(F)(F)F)cn2)ccn1-c1ccc2c(cnn2CCCN2CCCC2)c1
46 | 270 to 280 °C | – | Cc1ccc2oc(-c3ccn(-c4ccc5c(cnn5CCN5CCCC5)c4)c(=O)c3)nc2c1.Cl
47 | 275 to 280 °C | – | COc1ccc2[nH]c(-c3ccn(-c4ccc5c(cnn5CCN5CCCC5)c4)c(=O)c3)cc2c1.Cl
48 | 118 to 125 °C | – | Cl.O=c1cc(-c2cccc(Cl)c2)ccn1-c1ccc2c(cnn2CCN2CCCC2)c1
49 | 220 to 225 °C | – | O=c1cc(-c2ccc3ccccc3n2)ccn1-c1ccc2c(cnn2CCN2CCCC2)c1 (as salt: hydrochloride)
